Measured values: US20190150445A1, “SUBSTITUTED HALOGEN(THIO)ACYL COMPOUNDS” (priority 2016, published 2019)
Like-named read-outs stand apart in the source and are kept apart here.

Assays:
[1] = test system: Myzus persicae; assay: Myzus persicae oral test; type: in vivo; details: 120 h
Description: To produce a suitable preparation of active compound, 1 part by weight of active compound is mixed with the stated amount of solvent, and the concentrate is diluted with water to the desired concentration.
50 μl compound solution is filled in microtiter plates and 150 μl IPL41 insect medium (33% +15% sugar) is added to obtain a total volume of […] per well. Afterwards the plates are sealed with parafilm through which a mixed population of the green peach aphid (Myzus persicae) can suck on the compound preparation.
After 5 days mortality in % is determined. 100% means all aphids have been killed and 0% means none of the aphids have been killed.

[2] = test system: Diabrotica balteata; assay: Diabrotica balteata spray test; type: in vivo; details: 160 gg/well, larvae on germinated wheat seeds, after 7 days
Description: Diabrotica balteata—spray test
Further test concentrations are prepared by dilution with emulsifier containing water.
Soaked wheat seeds (Trificum aestivum) are placed in a multiple well plate filled with agar and some water and are incubated for 1 day to germinate (5 seeds per well). The germinated wheat seeds are sprayed with a test solution containing the desired concentration of the active ingredient. Afterwards each unit is infected with 10-20 larvae of the banded cucumber beetle (Diabrofica balteata).
After 7 days efficacy in % is determined.

[3] = LogP-Value (HCOOH); type: physicochemical; details: for chromatographic logP: HCOOH (formic acid)
[4] = test system: Nilaparvata lugens; assay: Nilaparvata lugens spray test (solvent 78.0 parts acetone, 1.5 parts dimethylformamide); type: in vivo; details: in Oryza sativa, 96 h
Description: (§1) Nilaparvata Wens—spray test
(§2) To produce a suitable preparation of active compound, 1 part by weight of active compound is mixed with the stated amount of solvents and is diluted with water, containing an emulsifier concentration of 1000 ppm, to the desired concentration. Further test concentrations are prepared by dilution with emulsifier containing water.
Rice plants (Oryza sativa) are sprayed with a preparation of the active ingredient of the desired concentration and the plants are infested with the brown planthopper (Nilaparvata lugens).
(§3) After 4 days mortality in % is determined. 100% means all planthoppers have been killed and 0% means none of the planthoppers have been killed.

[5] = test system: Lucilia cuprina; assay: Lucilia cuprina test (LUCICU); type: in vivo; details: 48 h
Description: Lucilia cuprina—test (LUCICU)
(§4) Solvent: dimethyl sulfoxide
10 mg active compound are dissolved in 0,5 ml Dimethylsulfoxid. Serial dilutions are made to obtain the desired rates.
Approximately 20 1st instar larvae of the Australian sheep blowfly (Lucilia cuprina) are transferred into a test tube containing minced horse meat and compound solution of the desired concentration.
After 2 days mortality in % is determined. 100% means all the larvae have been killed; 0% means none of the larvae have been killed.

[6] = test system: Ctenocephalides felis; assay: Ctenocephalides felis in-vitro contact test, adult cat flea; type: in vivo; details: 5 μg/cm^2 (=500 g/ha), after 48 hours
Description: Ctenocephalides felis—in-vitro contact tests adult cat flea
9 mg compound is solved in 1 ml acetone and diluted with acetone to the desired concentration. 250 μl of the test solution is filled in 25ml glass test tubes and homogeneously distributed on the inner walls by rotation and tilting on a shaking device (2 h at 30 rpm). With a compound concentration of 900 ppm, an inner surface of 44,7 cm^2 and a homogeneous distribution, a dose of 5 μg/cm^2 is achieved.
After the solvent has evaporated, each test tube is filled with 5-10 adult cat fleas (Ctenocephalides felis), closed with a perforated lid and incubated in a lying position at room temperature and relative humidity. After 48 hours efficacy is determined. The fleas are patted on the ground of the tubes and are incubated on a heating plate at 45-50° C. for at most 5 minutes Immotile or uncoordinated moving fleas, which are not able to escape the heat by climbing upwards, are marked as dead or moribund.
An efficacy of 100% means all fleas are dead or moribund; 0% means no fleas are dead or moribund.

[7] = test system: Nilaparvata lugens; assay: Nilaparvata lugens spray test (solvent 52.5 parts acetone, 7 parts dimethylformamide); type: in vivo; details: in Oryza sativa, 96 h
Description: as §1
as §2, with “water Ammonium salt and/or penetration enhancer in a dosage of 1000 ppm are added to the desired concentration if necessary.” for “water.”
Rice plants (Oryza sativa) are treated by being sprayed with the desired concentration of the active compound and are infested with larvae of the brown planthopper (Nilaparvata lugens).
as §3

[8] = test system: Myzus persicae; assay: Myzus persicae spray test; type: in vivo; details: in Brassica rapa, foliar
Description: Myzus persicae—spray test
as §2
Chinese cabbage (Brassica pekinensis) leaf disks infected with all instars of the green peach aphid (Myzus persicae), are sprayed with a preparation of the active ingredient of the desired concentration.
After 5-6 days mortality in % is determined. 100% means all aphids have been killed and 0% means none of the aphids have been killed.

[9] = test system: Ctenocephalides felis; assay: Ctenocephalides felis oral test (CTECFE); type: in vivo; details: 48 h, 100 ppm in cattle blood, adult unfed cat fleas, after 2 days
Description: Ctenocephalides felis—oral test (CTECFE)
as §4
To produce a suitable preparation of active compound, 10 mg of active compound are dissolved in 0.5 ml solvent, and the concentrate is diluted with cattle blood to the desired concentration.
Approximately 20 adult unfed cat fleas (Ctenocephalides felis) are placed in flea chambers. The blood chamber, sealed with parafilm on the bottom, are filled with cattle blood supplied with compound solution and placed on the gauze covered top of the flea chamber, so that the fleas are able to suck the blood. The blood chamber is heated to 37° C. whereas the flea chamber is kept at room temperature.
After 2 days mortality in % is determined. 100% means all the fleas have been killed; 0% means none of the fleas have been killed.

[10] = test system: Nezara viridula; assay: Nezara viridula spray test (solvent 52.5 parts acetone, 7 parts dimethylformamide); type: in vivo; details: in Hordeum vulgare, 96 h
Description: Nezara viridula—spray test
To produce a suitable preparation of active compound, 1 part by weight of active compound is mixed with the stated amount of solvent, and the concentrate is diluted with water, containing an emulsifier concentration of 1000 ppm, to the desired concentration Ammonium salt and/or penetration enhancer in a dosage of 1000 ppm are added to the desired concentration if necessary.
Barley plants (Hordeum vulgare) infested with larvae of the southern green stink bug (Nezara viridula) are sprayed with a test solution containing the desired concentration of the active ingredient.
After 4 days mortality in % is determined. 100% means all the stink bugs have been killed; 0% means none of the stink bugs have been killed.

[11] = test system: Musca domestica; assay: Musca domestica test (MUSCDO); type: in vivo; details: 48 h
Description: Musca domestica—test (MUSCDO)
as §4
To produce a suitable preparation of active compound, 10 mg of active compound are dissolved in 0.5 ml solvent, and the concentrate is diluted with water to the desired concentration.
10 adult house flies (Musca domestica) are transferred into a container, containing a sponge soaked with a mixture of sugar solution and compound solution of the desired concentration.
After 2 days mortality in % is determined. 100% means all the flies have been killed; 0% means none of the flies have been killed.

[12] = test system: Phaedon cochleariae; assay: Phaedon cochleariae spray test; type: in vivo; details: foliar, 168 h, larvae on Chinese cabbage leaf disks, after 7 days
Description: Phaedon cochleariae—spray test
as §2
Chinese cabbage (Brassica pekinensis) leaf disks are sprayed with a preparation of the active ingredient of the desired concentration. Once dry, the leaf disks are infested with mustard beetle larvae (Phaedon cochleariae).
After 7 days mortality in % is determined. 100% means all beetle larvae have been killed and 0% means none of the beetle larvae have been killed.

[13] = 100 ppm, 1st instar larvae, after 2 days, read-out: mortality

Row | Compound | mortality at 4 ppm [1] | mortality at 20 ppm [1] | efficacy (seedlings grown up) [2] | chromatographic logP [3] | mortality at 500 g/ha [4] | mortality at 100 ppm [5] | efficacy (fleas dead or moribund) [6] | mortality at 500 g/ha [7] | mortality at 100 g/ha [8] | mortality at 100 ppm [9] | mortality at 500 g/ha [10] | mortality at 20 ppm [11] | mortality at 100 ppm [5, 13] | LogP-Value (HCOOH) [3] | mortality at 500 g/ha [12]
1 | Fc1cc(CN2CCS/C2=C\C(=S)C(F)(F)F)cnc1Cl [Example I-3, 3-[3-[(6-Chloro-5-fluoro-3-pyridinyl)methyl]-2-thiazolidinylidene]-1,1,1-trifluoro-2-propanthione] | 100% | 100% | 100% | 1.2 | 100% | 100% |  |  |  |  |  |  |  |  | 
2 | O=C(/C=C1\NCCN1Cc1cnc(Cl)c(F)c1)C(F)(F)F [Example I-2, 3-[1-[(6-Chloro-5-fluoro-3-pyridinyl)methyl]-2-imidazolidinylidene]-1,1,1-trifluoro-2-propanone] |  |  | 100% | 2.19 |  |  | 100% | 100% | 100% | 100% | 90% | 100% | 100% |  | 
3 | O=C(/C=C1\SCCN1Cc1cnc(Cl)c(F)c1)C(F)(F)F [Example I-1] |  |  | 100% | 2.47 |  | 100% | 100% | 100% | 100% |  | 100% | 90% |  | 2,48 | 
4 | Fc1cc(CN2CCN/C2=C\C(=S)C(F)(F)F)cnc1Cl [Example I-4, 3-[1-[(6-Chloro-5-fluoro-3-pyridinyl)methyl]-2-imidazolidinylidene]-1,1,1-trifluoro-2-propanthione] | 100% |  | 100% | 2.59 | 100% |  | 100% |  |  | 95% |  |  | 100% | 2,61 | 83%
